Earlier results as cited in patent US20050227949A1, “Compositions and methods for treatment of viral and bacterial infections” (priority 2004, published 2005).

Key:
herpes simplex = conditions: previously reported treatment of herpes simplex infections
HIV = conditions: previously reported
suppressor T-cells = conditions: further reported uses; probably due to blockade of selected suppressor T-cells

In the case of `CN/C(=N/CCSCc1nc[nH]c1C)NC#N` [cimetidine], the “outbreak and duration of herpes zoster” value (herpes simplex) is given as “effectively reduced outbreak and duration of herpes zoster”, the “treatment result in HIV patients” value (HIV) is given as “less encouraging results” and the immune functions (suppressor T-cells) is given as “improvements of various immune functions”.
